Test results as given in patent US12545639B2, “3-substituted phenylamidine compounds, preparation and use thereof” (PI INDUSTRIES LTD., priority 2019, dated 2026).

Legend:
Alternaria solani = Alternaria solani (early blight of tomato/potato) in vitro test, radial growth on potato dextrose agar; assay type: cell-based; conditions: 168 h, 300 ppm in potato dextrose agar, 25° C., 60% relative humidity, seven days, read-out: control compared to the untreated check (radial growth)
Pyricularia oryzae = experiment: microbe, parasite or virus in culture; assay type: cell-based; conditions: 168 h, read-out: control compared to the untreated check (radial growth)
Rhizoctonia solani = Rhizoctonia solani (rice sheath blight/potato black scurf) in vitro test, radial growth on potato dextrose agar; assay type: cell-based; conditions: 168 h, 300 ppm in potato dextrose agar, 25° C., 60% relative humidity, seven days, read-out: control compared to the untreated check (radial growth)
Phakopsora pachyrhizi = Phakopsora pachyrhizi test in soybean, preventive, in vivo on plants; conditions: in Glycine max, read-out: Efficacy (% control), disease severity compared to the untreated check
Colletotrichum capsici = Colletotrichum capsici (anthracnose) in vitro test, radial growth on potato dextrose agar; assay type: cell-based; conditions: Colletotrichum truncatum, 168 h; 300 ppm in potato dextrose agar; 25° C., 60% relative humidity, seven days; read-out: control compared to the untreated check (radial growth)
Fusarium culmorum = Fusarium culmorum (foot rot of cereals) in vitro test, radial growth on potato dextrose agar; assay type: cell-based; conditions: 168 h, 300 ppm in potato dextrose agar, 25° C., 60% relative humidity, seven days, read-out: control compared to the untreated check (radial growth)
Outline: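 Compound in 0.3% DMSO mixed into potato dextrose agar, plates seeded with a 5 mm mycelial disc from an actively growing virulent culture. After seven days at 25° C and 60% relative humidity, radial growth was measured against untreated control.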

[1] = system: Septoria lycopersici/Corynespora cassicola (CORYCA); experiment: Septoria lycopersici/Corynespora cassicola (CORYCA) (leaf spot of tomato) in vitro test, radial growth on potato dextrose agar; assay type: cell-based; conditions: 168 h, 300 ppm in potato dextrose agar, 25° C., 70% relative humidity, seven days, read-out: control compared to the untreated check (radial growth)
Botrytis cinerea = Botrytis cinerea (gray mold) in vitro test, radial growth on potato dextrose agar; assay type: cell-based; conditions: 168 h, 300 ppm in potato dextrose agar, 22° C., 90% relative humidity, seven days, read-out: control compared to the untreated check (radial growth)

CCN(C)C=Nc1cc(F)cc(Nc2ccc(C(C)(C)C)cc2)c1C [Compound 20, N′-(3-((4-(tert-butyl)phenyl)amino)-5-fluoro-2-methylphenyl)-N-ethyl-N-methylformimidamide]
≥ 70%: inhibition of growth at 300 ppm (Alternaria solani) | inhibition of growth at 300 ppm (Pyricularia oryzae) | inhibition of growth at 300 ppm (Rhizoctonia solani) | pest or weed control at 500 ppm (Phakopsora pachyrhizi) | inhibition of growth at 300 ppm (Colletotrichum capsici) | inhibition of growth at 300 ppm (Fusarium culmorum) | inhibition of growth at 300 ppm [1] | inhibition of growth at 300 ppm (Botrytis cinerea)

CCN(C)C=Nc1cc(C)cc(Cc2ccc(F)cc2)c1Cl [Compound 44, N′-(2-chloro-3-(4-fluorobenzyl)-5-methylphenyl)-N-ethyl-N-methylformimidamide]
≥ 70%: inhibition of growth at 300 ppm (Alternaria solani) | inhibition of growth at 300 ppm (Pyricularia oryzae) | inhibition of growth at 300 ppm (Rhizoctonia solani) | pest or weed control at 500 ppm (Phakopsora pachyrhizi) | inhibition of growth at 300 ppm (Colletotrichum capsici) | inhibition of growth at 300 ppm (Fusarium culmorum) | inhibition of growth at 300 ppm [1] | inhibition of growth at 300 ppm (Botrytis cinerea)

CCN(C)C=Nc1cc(C)cc(Cc2ccccc2Cl)c1C [Compound 220, N′-(3-(2-chlorobenzyl)-2,5-dimethylphenyl)-N-ethyl-N-methylformimidamide]
≥ 70%: inhibition of growth at 300 ppm (Alternaria solani) | inhibition of growth at 300 ppm (Pyricularia oryzae) | inhibition of growth at 300 ppm (Rhizoctonia solani) | pest or weed control at 500 ppm (Phakopsora pachyrhizi) | inhibition of growth at 300 ppm (Colletotrichum capsici) | inhibition of growth at 300 ppm (Fusarium culmorum) | inhibition of growth at 300 ppm [1] | inhibition of growth at 300 ppm (Botrytis cinerea)

CCN(C)C=Nc1cc(Cl)cc(Cc2ccc(Cl)cc2)c1C [Compound 126, N′-(5-chloro-3-(4-chlorobenzyl)-2-methylphenyl)-N-ethyl-N-methylformimidamide]
≥ 70%: inhibition of growth at 300 ppm (Alternaria solani) | inhibition of growth at 300 ppm (Pyricularia oryzae) | inhibition of growth at 300 ppm (Rhizoctonia solani) | pest or weed control at 500 ppm (Phakopsora pachyrhizi) | inhibition of growth at 300 ppm (Colletotrichum capsici) | inhibition of growth at 300 ppm (Fusarium culmorum) | inhibition of growth at 300 ppm [1] | inhibition of growth at 300 ppm (Botrytis cinerea)

CCN(C)C=Nc1cc(Cl)cc(Cc2ccc(Br)cc2)c1C [Compound 125, N′-(3-(4-bromobenzyl)-5-chloro-2-methylphenyl)-N-ethyl-N-methylformimidamide]
≥ 70%: inhibition of growth at 300 ppm (Alternaria solani) | inhibition of growth at 300 ppm (Pyricularia oryzae) | inhibition of growth at 300 ppm (Rhizoctonia solani) | pest or weed control at 500 ppm (Phakopsora pachyrhizi) | inhibition of growth at 300 ppm (Colletotrichum capsici) | inhibition of growth at 300 ppm (Fusarium culmorum) | inhibition of growth at 300 ppm [1] | inhibition of growth at 300 ppm (Botrytis cinerea)

CCN(C)C=Nc1cc(C)cc(Cc2ccc(F)cc2)c1C [Compound 222, N-ethyl-N′-(3-(4-fluorobenzyl)-2,5-dimethylphenyl)-N-methylformimidamide]
≥ 70%: inhibition of growth at 300 ppm (Alternaria solani) | inhibition of growth at 300 ppm (Pyricularia oryzae) | inhibition of growth at 300 ppm (Rhizoctonia solani) | pest or weed control at 500 ppm (Phakopsora pachyrhizi) | inhibition of growth at 300 ppm (Colletotrichum capsici) | inhibition of growth at 300 ppm (Fusarium culmorum) | inhibition of growth at 300 ppm [1] | inhibition of growth at 300 ppm (Botrytis cinerea)

CCN(C)C=Nc1cc(C)cc(Cc2ccccc2Br)c1C [Compound 221, N′-(3-(2-bromobenzyl)-2,5-dimethylphenyl)-N-ethyl-N-methylformimidamide]
≥ 70%: inhibition of growth at 300 ppm (Alternaria solani) | inhibition of growth at 300 ppm (Pyricularia oryzae) | inhibition of growth at 300 ppm (Rhizoctonia solani) | pest or weed control at 500 ppm (Phakopsora pachyrhizi) | inhibition of growth at 300 ppm (Colletotrichum capsici) | inhibition of growth at 300 ppm (Fusarium culmorum) | inhibition of growth at 300 ppm [1] | inhibition of growth at 300 ppm (Botrytis cinerea)
